The target in this test is T1, N-terminal Xaa-Pro-Lys N-methyltransferase 1 (Homo sapiens, UniProt Q9BV86).
T1 sequence (Q9BV86 whole entry): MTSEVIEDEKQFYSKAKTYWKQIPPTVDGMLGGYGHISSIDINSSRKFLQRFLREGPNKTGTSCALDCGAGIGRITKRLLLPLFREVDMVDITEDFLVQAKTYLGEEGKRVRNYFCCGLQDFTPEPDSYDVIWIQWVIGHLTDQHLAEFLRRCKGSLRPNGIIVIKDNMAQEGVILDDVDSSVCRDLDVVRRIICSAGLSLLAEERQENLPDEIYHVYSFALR
Nature of the test: Not found.

Usually IC50 stands for the concentration at which inhibition is half-maximal. The low end stands for inhibition by little substance, the high end for a need for much substance.

`N=C(N)NCCC[C@H](NC(=O)[C@H](CCCCN)N1CCC[C@H]1C(N)=O)C(=O)N[C@@H](Cc1c[nH]c2ccccc12)C(N)=O` [US12479887, Compound 43] gave an IC50 of 95 nM.
